Data from paper PMC8067507, “Aryl Urea Based Scaffolds for Multitarget Drug Discovery in Anticancer Immunotherapies” (Pharmaceuticals, 2021).

What was measured:
PD-L1 [1] = molecular target: T1, PD-L1 (Homo sapiens, UniProt Q9NZQ7); test: PD-L1 quantification by flow cytometry in A-549; assay type: cell-based; design: endogenous in cells; host or cells: A-549 cancer cells; settings: A-549, 10 μM, 24 h, referred to control (DMSO)
Method: (§1) We evaluated the effect of the selected compounds on PD-L1 and on c-Myc proteins by flow cytometry after 24 h treatment at 10 μM concentration of compounds. Both, PD-L1 and c-Myc were relatively determined using DMSO treated cells as a negative control and BMS-8 as a positive one.
(§2) For the detection of total PD-L1 and c-Myc, cancer cells were seeded (3 × 10^5 cells/well) in 6-well plates and were incubated with the corresponding compounds for 24 h. Then they were collected, fixed, treated with 0.5% Triton^TM X-100 and stained with Alexa Fluor® 647 Rabbit monoclonal Anti-PD-L1 (ab215251) and FITC Rabbit monoclonal anti-c-Myc (ab223913).
(§3) We also checked results performing ELISA tests. For ELISA tests, lysates were collected, protein quantification was carried out by Bradford test and, then, PD-L1 and c-Myc were quantified using Human PD-L1 ELISA Kit 28-8 (ab214565) and c-Myc (Total) Human ELISA Kit (KHO2041), respectively, according to the manufacturer’s instructions.

HT-29 cells = test: Cell proliferation evaluation in co-cultures: HT-29 with Jurkat T cells; assay type: cell-based, human; settings: IFN-γ stimulated HT-29 co-cultured with Jurkat T cells, 10 µM, 24 h; five experiments
Method: We also studied the effect of Compounds 16, 23, 26 and 33 on tumor cell proliferation in the presence of PD-1 expressing Jurkat T-cells. For this assay, first interferon γ stimulated HT-29 cells were treated for 24 h with the selected compounds at 10 µM in presence of Jurkat T cells. Then, living cells were counted using trypan blue and a Neubauer chamber and by flow cytometry.
In 12-well plates, 10^5 HT-29 cells per well were seeded and incubated for 24 h with cell culture medium supplemented with IFN-γ (10 ng/mL; human, Invitrogen®) then medium was change by one containing 4 × 10^5 Jurkat T cells per well and 10 μM of the corresponding compound or DMSO for the control. After 24 h of incubation, supernatants were collected to determine Jurkat T cell living cells and, on the other hand, HT-29 cells were collected with trypsin. Both types of suspension cells were counted with the Neubauer chamber and trypan blue and also by flow cytometry.

[2] = test system: HeLa (epithelioid cervix carcinoma); test: Cell proliferation assay (MTT); assay type: cell-based; settings: Homo sapiens, 48 h, 2 days incubation, average ± SD of three experiments
Source text: (§4) The ability of Ureas 13–33 to inhibit cell proliferation was established by means of their IC50 values towards the human tumor cell lines HT-29 (colon adenocarcinoma), MCF-7 (breast adenocarcinoma), HeLa (epithelioid cervix carcinoma) and A549 (pulmonary adenocarcinoma), as well as towards the endothelial cell line HMEC-1 (human microvascular endothelial cells) and the non-tumor cell line HEK-293 (human embryonic kidney cells).
(§5) HT-29, MCF-7, HeLa, A549 and HEK-293 cell lines were maintained in Dulbecco’s modified Eagle’s medium (DMEM) containing glucose (1 g/L), glutamine (2 mM), penicillin (50 μg/mL), streptomycin (50 μg/mL), and amphotericin B (1.25 μg/mL), supplemented with 10% FBS. HMEC-1 cell line was maintained in Dulbecco’s modified Eagle’s medium (DMEM)/low glucose containing glutamine (2 mM), penicillin (50 μg/mL), streptomycin (50 μg/mL), and amphotericin B (1.25 μg/mL), supplemented with 10% FBS. For the development of tube formation assays in Matrigel, HMEC-1 cells were cultured in EGM-2MV Medium supplemented with EGM-2MV SingleQuots.
(§6) In 96-well plates, 3 × 10^3 (HeLa, A549, HMEC-1, HEK-293) or 5 × 10^3 (HT-29, MCF-7) cells per well were incubated with serial dilutions of the tested compounds in a total volume of 100 μL of their respective growth media. The 3-(4,5-dimethylthiazol-2-yl)-2,5-diphenyltetrazolium bromide (MTT; Sigma Chemical Co.) dye reduction assay in 96-well microplates was used. After 2 days of incubation (37 °C, 5% CO2 in a humid atmosphere), 10 μL of MTT (5 mg/mL in phosphate-buffered saline, PBS) was added to each well, and the plate was incubated for a further 3 h (37 °C). After that, the supernatant was discarded and replaced by 100 µL of DMSO to dissolve formazan crystals. The absorbance was then read at 540 nm by spectrophotometry. For all concentrations of compound, cell viability was expressed as the percentage of the ratio between the mean absorbance of treated cells and the mean absorbance of untreated cells. Three independent experiments were performed, and the IC50 values (i.e., concentration half inhibiting cell proliferation) were graphically determined using GraphPad Prism 4 software.

[3] = test system: HT-29 (colon adenocarcinoma); test: Cell proliferation assay (MTT); assay type: cell-based; settings: Homo sapiens, HT-29, 48 h, 2 days incubation, average ± SD of three experiments
Source text: as §4, §5, §6

[4] = test system: HEK-293 (human embryonic kidney cells); test: Cell proliferation assay (MTT); assay type: cell-based; settings: HEK293, 48 h, 2 days incubation, average ± SD of three experiments
Source text: as §4, §5, §6

[5] = test system: MCF-7 (breast adenocarcinoma); test: Cell proliferation assay (MTT); assay type: cell-based; settings: Homo sapiens, MCF7, 48 h, 2 days incubation, average ± SD of three experiments
Source text: as §4, §5, §6

[6] = test system: A549 (pulmonary adenocarcinoma); test: Cell proliferation assay (MTT); assay type: cell-based; settings: Homo sapiens, A549, 48 h, 2 days incubation, average ± SD of three experiments
Source text: as §4, §5, §6

c-Myc [7] = test: c-Myc quantification by flow cytometry in A-549; assay type: cell-based, human; settings: A-549, 10 μM, 24 h, referred to control (DMSO)
Method: as §1, §2, §3

PD-L1 [8] = molecular target: T1, PD-L1; test: PD-L1 quantification by flow cytometry in HT-29; assay type: cell-based; settings: HT-29, 10 μM, 24 h, referred to control (DMSO)
Method: as §1, §2, §3

c-Myc [9] = test: c-Myc quantification by flow cytometry in HT-29; assay type: cell-based, human; settings: HT-29, 10 μM, 24 h, referred to control (DMSO)
Method: as §1, §2, §3

[10] = test system: all tested cell lines (HT-29, MCF-7, HeLa, A549, HMEC-1, HEK-293); design: method as in PMID 30878834; settings: chlorophenyl derivatives of the previous study; read-out: IC50 values (range over cell lines); cited from earlier work
[11] = test system: HMEC-1 (human microvascular endothelial cells); test: Cell proliferation assay (MTT); assay type: cell-based; settings: HMEC-1, 48 h, 2 days incubation, average ± SD of three experiments
Source text: as §4, §5, §6

HMEC-1 cells = test: Tube formation inhibition assay; assay type: cell-based, human; settings: HMEC-1 on Matrigel, 20 h incubation; average of three experiments
Method: as §5
Wells of an IBIDI μ-slide angiogenesis (IBIDI, Martinsried, Germany) were coated with 12 μL of Matrigel® (10 mg/mL, BD Biosciences) at 4 °C. After gelatinization at 37 °C for 30 min, HMEC-1 cells were seeded at 2 × 10^4 cells/well in 35 μL of culture medium on top of the Matrigel and were incubated 30 min at 37 °C while are attached. Then, compounds were added dissolved in 35 μL of culture medium and after 20 h of incubation at 37 °C, tube destruction was evaluated.

VEGFR-2 [12] = molecular target: T2, VEGFR-2 (Homo sapiens, UniProt P35968); test: VEGFR-2 quantification by flow cytometry in HT-29; assay type: cell-based; design: Both membrane and total VEGFR-2 were relatively determined using dimethyl sulfoxide (DMSO) treated cells as a negative control; endogenous in cells; host or cells: HT-29 (colon adenocarcinoma) and HMEC-1 (human microvascular endothelial cells); settings: 24 h; for Membrane VEGFR-2 (%) / Total VEGFR-2 (%): HT-29, 10 µM, relative to DMSO control
T2 sequence (P35968 20-1356): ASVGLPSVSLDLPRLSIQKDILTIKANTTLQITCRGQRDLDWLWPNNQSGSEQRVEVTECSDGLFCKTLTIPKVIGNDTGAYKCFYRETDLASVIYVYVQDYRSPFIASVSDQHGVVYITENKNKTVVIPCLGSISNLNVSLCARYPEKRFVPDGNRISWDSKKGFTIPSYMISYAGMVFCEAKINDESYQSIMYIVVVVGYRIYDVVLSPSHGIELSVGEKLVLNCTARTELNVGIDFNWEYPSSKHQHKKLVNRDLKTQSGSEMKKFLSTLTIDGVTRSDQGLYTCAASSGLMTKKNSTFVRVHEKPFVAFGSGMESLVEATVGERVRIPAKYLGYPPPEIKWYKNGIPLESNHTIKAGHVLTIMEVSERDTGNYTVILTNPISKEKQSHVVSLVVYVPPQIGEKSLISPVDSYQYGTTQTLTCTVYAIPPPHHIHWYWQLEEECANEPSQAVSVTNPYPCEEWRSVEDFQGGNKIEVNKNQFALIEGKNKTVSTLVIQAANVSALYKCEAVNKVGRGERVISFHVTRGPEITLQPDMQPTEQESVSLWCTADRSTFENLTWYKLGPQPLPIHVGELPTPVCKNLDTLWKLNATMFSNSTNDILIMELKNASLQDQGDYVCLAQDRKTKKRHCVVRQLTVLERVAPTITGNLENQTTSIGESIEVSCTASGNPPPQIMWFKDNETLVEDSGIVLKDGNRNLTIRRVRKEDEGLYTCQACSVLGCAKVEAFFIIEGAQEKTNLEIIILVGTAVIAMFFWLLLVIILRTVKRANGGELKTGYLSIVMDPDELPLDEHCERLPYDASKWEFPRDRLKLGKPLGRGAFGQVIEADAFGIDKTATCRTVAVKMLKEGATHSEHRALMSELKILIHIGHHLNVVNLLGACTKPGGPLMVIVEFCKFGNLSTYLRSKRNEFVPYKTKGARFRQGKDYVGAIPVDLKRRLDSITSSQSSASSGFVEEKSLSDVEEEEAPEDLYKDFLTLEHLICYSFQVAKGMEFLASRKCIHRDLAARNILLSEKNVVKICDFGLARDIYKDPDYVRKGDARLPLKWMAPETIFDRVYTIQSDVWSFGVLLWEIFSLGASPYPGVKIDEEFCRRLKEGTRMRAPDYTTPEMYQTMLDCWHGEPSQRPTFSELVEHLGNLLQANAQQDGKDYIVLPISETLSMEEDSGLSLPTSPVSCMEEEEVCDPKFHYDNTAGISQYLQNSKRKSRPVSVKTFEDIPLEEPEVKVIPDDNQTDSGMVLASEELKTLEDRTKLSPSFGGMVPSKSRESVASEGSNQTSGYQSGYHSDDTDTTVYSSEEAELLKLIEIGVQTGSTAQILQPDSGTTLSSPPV
Method: (§7) We performed the study on both a HT-29 cancer cell line and a human microvessel endothelial cell line (HMEC-1). […] The effect of these selected derivatives on VEGFR-2, on HT-29 tumor cell line and on human microvessel endothelial cells (HMEC) was determined by flow cytometry technique. […] For these assays, cells were incubated for 24 h in the presence of the corresponding compounds at 10 µM concentration.

VEGFR-2 [13] = molecular target: T2, VEGFR-2; test: VEGFR-2 quantification by flow cytometry in HMEC-1; assay type: cell-based; design: Both membrane and total VEGFR-2 were relatively determined using dimethyl sulfoxide (DMSO) treated cells as a negative control; endogenous in cells; host or cells: HMEC-1 (human microvascular endothelial cells); settings: 10 µM, 24 h, relative to DMSO control
Method: as §7

T1 sequence (Q9NZQ7 19-290): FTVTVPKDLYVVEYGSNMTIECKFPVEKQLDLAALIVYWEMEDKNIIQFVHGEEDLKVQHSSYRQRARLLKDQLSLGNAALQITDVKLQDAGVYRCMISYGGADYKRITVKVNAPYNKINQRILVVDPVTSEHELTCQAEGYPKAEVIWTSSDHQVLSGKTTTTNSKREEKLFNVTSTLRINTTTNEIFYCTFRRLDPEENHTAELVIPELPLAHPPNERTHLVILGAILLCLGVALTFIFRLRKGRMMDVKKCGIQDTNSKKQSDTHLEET

Compound	PD-L1 (%) relative expression (PD-L1 [1]) [%]	IC50 [2] [µM]	IC50 [3] [µM]	IC50 [5] [µM]	IC50 [6] [µM]	PD-L1 (%) relative expression (PD-L1 [8]) [%]	melting point [°C]	inhibition at 10 µM (VEGFR-2 [12]; 10 µM, statement for HT-29 and HMEC-1, read-out: inhibition of both membrane and total VEGFR-2) [%]	Membrane VEGFR-2 (%) (VEGFR-2 [12])	Total VEGFR-2 (%) (VEGFR-2 [12])	Membrane VEGFR-2 (%) (VEGFR-2 [13])	Total VEGFR-2 (%) (VEGFR-2 [13])	Living HT-29 cell proliferation (%) (HT-29 cells)	IC50 [4] [µM]	c-Myc (%) relative expression (c-Myc [7]) [%]	c-Myc (%) relative expression (c-Myc [9]) [%]	IC50 [10] [µM]	IC50 [11] [µM]	Minimum Active Conc. (inhibition of tube formation) (HMEC-1 cells) [µM]
Cc1c(COc2ccc(CN3CCCCC3C(=O)O)cc2Br)cccc1-c1ccccc1 (centres unmarked) [BMS-8, reference compound]	68 ± 5	> 100	19 ± 2	20 ± 3	6 ± 1	62 ± 3	–	–	–	–	–	–	45	60 ± 10	60 ± 7	99 ± 4	–	–	–
COc1ccc(/C=C/c2cccc(NC(=O)Nc3cccc(Cl)c3)c2)cc1 [Compound 5]	–	–	–	–	–	–	–	–	–	–	–	–	–	–	–	–	2 to 11	–	–
COc1ccc(/C=C/c2cccc(NC(=O)Nc3ccc(Cl)cc3)c2)cc1 [Compound 6]	–	–	–	–	–	–	–	–	–	–	–	–	–	–	–	–	0.4 to 1.8	–	–
COc1ccc(CCc2cccc(NC(=O)Nc3ccc(OC)cc3)c2)cc1 [Compound 33]	42 ± 11	1.4 ± 0.5	4.4 ± 0.8	1.5 ± 0.6	8 ± 3	38 ± 13	–	–	68 ± 13	100 ± 10	66 ± 5	93 ± 8	62	0.9 ± 0.07	83 ± 12	70 ± 10	–	0.9 ± 0.03	–
CNC(=O)c1cc(Oc2ccc(NC(=O)Nc3ccc(Cl)c(C(F)(F)F)c3)cc2)ccn1 [Sorafenib, sorafenib, reference compound]	–	6.1 ± 0.4	17 ± 4	14 ± 4	27 ± 2	–	–	–	–	–	–	–	–	5 ± 0.7	–	–	–	34 ± 3	10
CCN(CC)CCNC(=O)c1c(C)[nH]c(/C=C2\C(=O)Nc3ccc(F)cc32)c1C [Sunitinib, sunitinib, reference compound]	–	–	–	–	–	–	–	–	–	–	–	–	–	–	–	–	–	–	3

Continued, in another order:

PD-L1 (%) relative expression (PD-L1 [1]) [%]	IC50 [2] [µM]	IC50 [3] [µM]	IC50 [5] [µM]	IC50 [6] [µM]	PD-L1 (%) relative expression (PD-L1 [8]) [%]	melting point [°C]	inhibition at 10 µM (VEGFR-2 [12]; 10 µM, statement for HT-29 and HMEC-1, read-out: inhibition of both membrane and total VEGFR-2) [%]	Membrane VEGFR-2 (%) (VEGFR-2 [12])	Total VEGFR-2 (%) (VEGFR-2 [12])	Membrane VEGFR-2 (%) (VEGFR-2 [13])	Total VEGFR-2 (%) (VEGFR-2 [13])	Compound	Living HT-29 cell proliferation (%) (HT-29 cells)	IC50 [4] [µM]	c-Myc (%) relative expression (c-Myc [7]) [%]	c-Myc (%) relative expression (c-Myc [9]) [%]	IC50 [10] [µM]	IC50 [11] [µM]	Minimum Active Conc. (inhibition of tube formation) (HMEC-1 cells) [µM]
–	30 ± 7	25 ± 2	28 ± 5	38 ± 6	–	174	–	–	–	–	–	COc1ccc(/C=C\c2cccc(NC(=O)Nc3cccc(Br)c3)c2)cc1 [Compound 15]	–	23 ± 2	–	–	–	24 ± 4	–
16 ± 6	3.1 ± 0.1	0.4 ± 0.3	0.3 ± 0.2	3 ± 0.4	18 ± 5	–	> 50	36 ± 9	39 ± 8	39 ± 5	74 ± 8	COc1ccc(/C=C/c2cccc(NC(=O)Nc3ccc(Br)cc3)c2)cc1 [Compound 23]	64	0.7 ± 0.3	34 ± 4	49 ± 8	–	1.8 ± 0.3	1
50 ± 3	4 ± 1	0.2 ± 0.2	0.7 ± 0.3	13 ± 3	33 ± 10	–	–	68 ± 9	95 ± 9	65 ± 9	83 ± 7	COc1ccc(/C=C/c2cccc(NC(=O)Nc3ccc(OC)cc3)c2)cc1 [Compound 26]	62	1.4 ± 0.6	63 ± 7	57 ± 9	–	1.9 ± 0.6	–
